Assay results as given in PubChem BioAssay (NCI).
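Following 48 hours of exposure in 96-well plates, responses at five concentrations were used to interpolate endpoints linearly. GI50 is the concentration that inhibits growth by half. Definition used: TGI = concentration required for complete inhibition of growth.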

Key:
Assay in all cases: NCI tumour cell line growth inhibition, 48 h
UACC-62 melanoma = system: UACC-62 melanoma
SNB-19 CNS = system: SNB-19 CNS
KM12 colon = system: KM12 colon
SK-MEL-2 melanoma = system: SK-MEL-2 melanoma
NCI-H23 lung = system: NCI-H23 lung
NCI/ADR-RES ovarian = system: NCI/ADR-RES ovarian
OVCAR-8 ovarian = system: OVCAR-8 ovarian
SNB-75 CNS = system: SNB-75 CNS
CCRF-CEM leukemia = system: CCRF-CEM leukemia
DU-145 prostate = system: DU-145 prostate
HOP-62 NSCLC = system: HOP-62 NSCLC
OVCAR-5 ovarian = system: OVCAR-5 ovarian
HT29 colon = system: HT29 colon
PC-3 prostate = system: PC-3 prostate
SF-295 CNS = system: SF-295 CNS
OVCAR-4 ovarian = system: OVCAR-4 ovarian
COLO 205 colon = system: COLO 205 colon
A549 NSCLC = system: A549 NSCLC
SF-268 CNS = system: SF-268 CNS
MCF7 breast = system: MCF7 breast
A498 renal = system: A498 renal
HL-60(TB) leukemia = system: HL-60(TB) leukemia
SF-539 CNS = system: SF-539 CNS
HCC-2998 colon = system: HCC-2998 colon
SK-OV-3 ovarian = system: SK-OV-3 ovarian
MDA-MB-435 = system: MDA-MB-435
U251 CNS = system: U251 CNS
NCI-H460 lung = system: NCI-H460 lung
SW-620 colon = system: SW-620 colon
T-47D breast = system: T-47D breast
HS 578T breast = system: HS 578T breast
MALME-3M melanoma = system: MALME-3M melanoma
786-0 renal = system: 786-0 renal
K-562 leukemia = system: K-562 leukemia
MDA-MB-231 breast = system: MDA-MB-231 breast
HOP-92 NSCLC = system: HOP-92 NSCLC
RXF 393 renal = system: RXF 393 renal
NCI-H226 lung = system: NCI-H226 lung
LOX IMVI melanoma = system: LOX IMVI melanoma
SK-MEL-28 melanoma = system: SK-MEL-28 melanoma
NCI-H522 lung = system: NCI-H522 lung
BT-549 breast = system: BT-549 breast
UO-31 renal = system: UO-31 renal
EKVX NSCLC = system: EKVX NSCLC
M14 melanoma = system: M14 melanoma
UACC-257 melanoma = system: UACC-257 melanoma
MOLT-4 leukemia = system: MOLT-4 leukemia
SR leukemia = system: SR leukemia
SN12C renal = system: SN12C renal
HCT-116 colon = system: HCT-116 colon
HCT-15 colon = system: HCT-15 colon
SK-MEL-5 melanoma = system: SK-MEL-5 melanoma
OVCAR-3 ovarian = system: OVCAR-3 ovarian
ACHN renal = system: ACHN renal
RPMI-8226 leukemia = system: RPMI-8226 leukemia

SMILES: C=CC(=O)N(C)[C@H]1C[C@H]2OC(C)(C1OC)n1c3ccccc3c3c4c(c5c6ccccc6n2c5c31)C(=O)NC4 (stereo partly drawn)
- GI50 (UACC-62 melanoma): 130 nM
- TGI (UACC-62 melanoma): 835 nM
- GI50 (SNB-19 CNS): 170 nM
- TGI (SNB-19 CNS): 1710 nM
- GI50 (KM12 colon): 22.8 nM
- TGI (KM12 colon): 790 nM
- GI50 (SK-MEL-2 melanoma): 193 nM
- TGI (SK-MEL-2 melanoma): 1490 nM
- GI50 (NCI-H23 lung): 158 nM
- TGI (NCI-H23 lung): 2080 nM
- GI50 (NCI/ADR-RES ovarian): 182 nM
- TGI (NCI/ADR-RES ovarian): 3590 nM
- GI50 (OVCAR-8 ovarian): 217 nM
- GI50 (SNB-75 CNS): 13.7 nM
- TGI (SNB-75 CNS): 76.6 nM
- GI50 (CCRF-CEM leukemia): 33.7 nM
- TGI (CCRF-CEM leukemia): 1350 nM
- GI50 (DU-145 prostate): 124 nM
- TGI (DU-145 prostate): 18700 nM
- GI50 (HOP-62 NSCLC): 19.3 nM
- TGI (HOP-62 NSCLC): 176 nM
- GI50 (OVCAR-5 ovarian): 106 nM
- TGI (OVCAR-5 ovarian): > 50000 nM
- GI50 (HT29 colon): 178 nM
- TGI (HT29 colon): 2700 nM
- GI50 (PC-3 prostate): 182 nM
- TGI (PC-3 prostate): 15200 nM
- GI50 (SF-295 CNS): 81.5 nM
- TGI (SF-295 CNS): 827 nM
- GI50 (OVCAR-4 ovarian): 93.9 nM
- TGI (OVCAR-4 ovarian): > 50000 nM
- GI50 (COLO 205 colon): 83.1 nM
- TGI (COLO 205 colon): 253 nM
- GI50 (A549 NSCLC): 93.8 nM
- TGI (A549 NSCLC): > 20000 nM
- GI50 (SF-268 CNS): 59.9 nM
- TGI (SF-268 CNS): 1260 nM
- GI50 (MCF7 breast): 123 nM
- TGI (MCF7 breast): > 50000 nM
- GI50 (A498 renal): 34.9 nM
- TGI (A498 renal): 182 nM
- GI50 (HL-60(TB) leukemia): 129 nM
- TGI (HL-60(TB) leukemia): 1590 nM
- GI50 (SF-539 CNS): 83 nM
- TGI (SF-539 CNS): 379 nM
- GI50 (HCC-2998 colon): 575 nM
- TGI (HCC-2998 colon): 1460 nM
- GI50 (SK-OV-3 ovarian): 95.5 nM
- TGI (SK-OV-3 ovarian): 318 nM
- GI50 (MDA-MB-435): 364 nM
- TGI (MDA-MB-435): 3900 nM
- GI50 (U251 CNS): 123 nM
- TGI (U251 CNS): 913 nM
- GI50 (NCI-H460 lung): 87.6 nM
- TGI (NCI-H460 lung): 1010 nM
- GI50 (SW-620 colon): 51.4 nM
- TGI (SW-620 colon): 792 nM
- GI50 (T-47D breast): 77.4 nM
- GI50 (HS 578T breast): 88.7 nM
- TGI (HS 578T breast): 600 nM
- GI50 (MALME-3M melanoma): 70.6 nM
- TGI (MALME-3M melanoma): 449 nM
- GI50 (786-0 renal): 87.2 nM
- TGI (786-0 renal): 690 nM
- GI50 (K-562 leukemia): 233 nM
- TGI (K-562 leukemia): > 50000 nM
- GI50 (MDA-MB-231 breast): 78.3 nM
- TGI (MDA-MB-231 breast): 1040 nM
- GI50 (HOP-92 NSCLC): 40.2 nM
- TGI (HOP-92 NSCLC): 266 nM
- GI50 (RXF 393 renal): 22.1 nM
- TGI (RXF 393 renal): 157 nM
- GI50 (NCI-H226 lung): 96.3 nM
- TGI (NCI-H226 lung): 920 nM
- GI50 (LOX IMVI melanoma): 82.3 nM
- TGI (LOX IMVI melanoma): 670 nM
- GI50 (SK-MEL-28 melanoma): 369 nM
- TGI (SK-MEL-28 melanoma): 2080 nM
- GI50 (NCI-H522 lung): 83.9 nM
- TGI (NCI-H522 lung): 565 nM
- GI50 (BT-549 breast): 96.3 nM
- TGI (BT-549 breast): 553 nM
- GI50 (UO-31 renal): 18 nM
- TGI (UO-31 renal): 85.4 nM
- GI50 (EKVX NSCLC): 85 nM
- TGI (EKVX NSCLC): > 50000 nM
- GI50 (M14 melanoma): 115 nM
- TGI (M14 melanoma): 1740 nM
- GI50 (UACC-257 melanoma): 216 nM
- TGI (UACC-257 melanoma): 1390 nM
- GI50 (MOLT-4 leukemia): 77.3 nM
- TGI (MOLT-4 leukemia): 899 nM
- GI50 (SR leukemia): 98.3 nM
- TGI (SR leukemia): 776 nM
- GI50 (SN12C renal): 52.1 nM
- TGI (SN12C renal): 931 nM
- GI50 (HCT-116 colon): 68.1 nM
- TGI (HCT-116 colon): 672 nM
- GI50 (HCT-15 colon): 99 nM
- TGI (HCT-15 colon): 644 nM
- GI50 (SK-MEL-5 melanoma): 262 nM
- TGI (SK-MEL-5 melanoma): 972 nM
- GI50 (OVCAR-3 ovarian): 160 nM
- TGI (OVCAR-3 ovarian): 851 nM
- GI50 (ACHN renal): 139 nM
- TGI (ACHN renal): > 50000 nM
- GI50 (RPMI-8226 leukemia): 103 nM
- TGI (RPMI-8226 leukemia): 1500 nM
